Experimental data: ChEMBL document CHEMBL1135013, “A simple and rapid method for the differentiation of C-13 manoyl oxide epimers in biologically important samples using GC-MS analysis supported with NMR spectroscopy and computational chemistry results” (2002)
In brackets after ≈: the same amount, converted by molar mass.

Assays:
Assay type in all cases: functional
Klebsiella pneumoniae = test: Compound (isolated from leaves of Cistus monspeliensis) was tested for antimicrobial activity against Klebsiella pneumoniae (ATCC 13883)
Escherichia coli = test: Compound (isolated from leaves of Cistus monspeliensis) was tested for antimicrobial activity against Escherichia coli (ATCC 25922)
Staphylococcus aureus = test: Compound (isolated from leaves of Cistus monspeliensis) was tested for antimicrobial activity against Staphylococcus aureus (ATCC 6538)
[1] = system: Staphylococcus epidermidis; test: Compound (isolated from leaves of Cistus monspeliensis) was tested for antimicrobial activity against Staphylococcus epidermidis (ATCC 12228)
Staphylococcus hominis = test: Compound (isolated from leaves of Cistus monspeliensis) was tested for antimicrobial activity against Staphylococcus hominis (ATCC 27844)

MIC50 (Klebsiella pneumoniae)	MIC50 (Escherichia coli)	MIC50 (Staphylococcus aureus)	MIC50 [1]	MIC50 (Staphylococcus hominis)	Compound
> 2000 µg/mL	> 2000 µg/mL	–	–	–	C=C[C@@]1(C)CC[C@@H]2[C@](C)(CCC3C(C)(C)CCC[C@]32C)O1 (some centres not stated)
0.6 µg/mL (≈ 1.03 µM)	0.6 µg/mL (≈ 1.03 µM)	2.1 µg/mL (≈ 3.61 µM)	2.1 µg/mL (≈ 3.61 µM)	2.1 µg/mL (≈ 3.61 µM)	CN[C@@H]1[C@H](O[C@H]2[C@H](O[C@H]3[C@H](O)[C@@H](O)[C@H](N=C(N)N)[C@@H](O)[C@@H]3N=C(N)N)O[C@@H](C)[C@]2(O)C=O)O[C@@H](CO)[C@H](O)[C@H]1O [STREPTOMYCIN]
